Measured values taken from PMC11284788, “NN1213 – A Potent, Long-Acting, and Selective Analog of Human Amylin” (Journal of Medicinal Chemistry, 2024).
Numbered stars: 1 amine (or outer) side, 2 acyl side, 3 side chain; on linkers, the order of the positions; unused ones are H or OH. Bridge positions count the residues as written; N and C are the ends. Side chains are listed from the residue outwards. Peptide text beside a SMILES is read from it. * marks the point of attachment. C20 diacid = O=C(O)CCCCCCCCCCCCCCCCCCC(=O)*; γGlu = O=C(O)[C@H](CCC(=O)[*:2])N[*:1]; AEEA = NCCOCCOCC(=O)O

How the values were obtained:
rAMY3R = biological target: T1, rAMY3R (Rattus norvegicus, UniProt P32214+Q9JJ73); assay: scintillation proximity binding assay, rAMY3R membranes; set-up: expressed in transfected cells; host or cells: BHK tk-ts 13, transient co-transfection (FuGENE 6); details: for ratio rCTR/rAMY3R: ratio of binding IC50 values
T1 sequence (P32214 25-479 isoform P32214-2 limits assumed): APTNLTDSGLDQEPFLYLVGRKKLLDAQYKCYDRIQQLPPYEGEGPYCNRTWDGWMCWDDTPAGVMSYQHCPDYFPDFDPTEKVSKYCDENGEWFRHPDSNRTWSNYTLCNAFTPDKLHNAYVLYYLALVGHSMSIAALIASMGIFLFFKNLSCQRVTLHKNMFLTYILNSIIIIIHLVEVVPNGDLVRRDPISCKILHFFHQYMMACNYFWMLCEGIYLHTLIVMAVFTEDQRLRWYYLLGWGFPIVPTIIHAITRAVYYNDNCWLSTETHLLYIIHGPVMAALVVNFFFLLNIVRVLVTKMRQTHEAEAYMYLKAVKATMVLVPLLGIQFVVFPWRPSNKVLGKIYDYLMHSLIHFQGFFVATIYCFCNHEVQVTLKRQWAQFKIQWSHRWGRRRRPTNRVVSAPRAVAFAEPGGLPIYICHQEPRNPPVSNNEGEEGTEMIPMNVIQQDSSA
T1 sequence (Q9JJ73 23-147 partner): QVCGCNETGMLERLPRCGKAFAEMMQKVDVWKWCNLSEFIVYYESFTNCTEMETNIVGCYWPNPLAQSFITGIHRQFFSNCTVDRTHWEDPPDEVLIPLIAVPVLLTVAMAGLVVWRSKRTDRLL
Procedure: The apparent binding affinities were determined using a scintillation proximity assay with beads from PerkinElmer and cell membranes containing the AMY3R or CTRs. […] Membranes were harvested and membranes were prepared and kept at −80 °C until use. The assay was performed in a 384-well Optiplate (PerkinElmer). Membranes were mixed with scintillation proximity assay beads in a 1:1 ratio. […] Samples were analyzed on a TopCounter (Packard). The IC50 values were calculated using GraphPad Prism. See Supporting Information S7: SAR Screening Assay Methods (Binding Assays (Human and Rat)) for more information.
Binding Assays (Human and Rat). Brief descriptions of the methods used to determine binding affinities for SAR analysis are described below. Curves and IC50 values were plotted and calculated in GraphPad Prism using nonlinear regression (one site binding competition analysis), with pIC50 values […]
values were used to calculate the binding affinity ratios in order to express the selectivity of compounds for the AMY3R versus the CTR.
CTR Binding Assay. The binding assay was performed using scintillation proximity assay (SPA) beads (RPNQ0001) from PerkinElmer and cell membranes containing either the hCTR or rCTR. BHK […]
(§1) Membranes were prepared in the following way: the cells were rinsed with PBS and incubated with Versene for approximately 5 min before harvesting. The cells were flushed with PBS and the cell-suspension was centrifuged for 5 min at 1000 rpm. Cells were homogenized (Ultra Turrax) in a buffer […]
containing 20 mM Na-HEPES and 0.1 mM EDTA (pH 7.4, buffer 2). The resulting pellet was re-suspended in buffer 2 and protein concentration was measured (BCA protein assay, Pierce). The homogenate was kept cold during the whole procedure. The membranes were stored at –80 °C until […]
The binding assay was performed in a 384-well Optiplate (PerkinElmer) in a total volume of 40 μL.
Membranes were mixed with SPA beads in a 1:1 ratio. […]
mg/well. Test compounds were dissolved in DMSO and further diluted in assay buffer (50 mM HEPES, pH 7.4, 1 mM CaCl2, 5 mM MgCl2, 0.1% ovalbumin, and 0.02% Tween-20).
Calcitonin (NEX422 PerkinElmer) was dissolved in assay buffer and added to the Optiplate at a final […]
prior to centrifugation (1500 rpm, 10 min). Samples were analyzed on TopCounter (Packard).
AMY3R Binding Assay. The binding assay was performed using SPA beads (RPNQ0001) from PerkinElmer and cell membranes containing either the hAMY3R or rAMY3R. BHK tk-ts 13 cells were […]
as §1, with “and cultured as described above. Membranes” for “Membranes”, “buffer containing 20 mM Na-HEPES and 10 mM EDTA (pH 7.4), and” for “buffer”
The resulting pellet was re-suspended, homogenized, and
7.4, buffer 2). The resulting pellet was re-suspended in buffer 2 and protein concentration was measured (BCA protein assay, Pierce). The homogenate was kept cold during the whole procedure.
The membranes were stored at –80 °C until use.
Membranes were mixed with SPA beads in a 1:1 ratio. The final concentration of SPA beads was 0.05 mg/well. Test compounds were dissolved in DMSO and further diluted in assay buffer (50 mM […]
rAMY (NEX448 PerkinElmer) was dissolved in assay buffer and added to the Optiplate at a final

rat AMY3R = biological target: T2, rat AMY3R (Rattus norvegicus, UniProt P32214+Q9JJ73); assay: cAMP FlashPlate assay, rat AMY3R; type: cell-based; details: ratio of cAMP EC50 values
T2 construct: expressed in transfected cells; host or cells: BHK tk-ts 13, transient co-transfection (FuGENE 6)
T2 sequence (P32214 25-479 isoform P32214-2 limits assumed): T1 sequence (P32214 25-479 isoform P32214-2 limits assumed)
T2 sequence (Q9JJ73 23-147 partner): T1 sequence (Q9JJ73 23-147 partner)

ratio rCTR/rAMY3R (rAMY3R)	rAMY3R pIC50 (rAMY3R; SPA binding assay, Tables S13 and S15)	Structure (SMILES)	ratio rCTR/rAMY3R (rat AMY3R)
7.5	9.00	CC(C)C[C@H](NC(=O)[C@H](CCCNC(=N)N)NC(=O)[C@H](CCC(N)=O)NC(=O)[C@@H](NC(=O)[C@H](C)NC(=O)[C@@H]1CSSC[C@H](NC(=O)[C@@H](N)CCCCNC(=O)CC[C@H](NC(=O)CC[C@H](NC(=O)CCCCCCCCCCCCCCCCCCC(=O)O)C(=O)O)C(=O)O)C(=O)N[C@@H](CC(N)=O)C(=O)N[C@@H]([C@@H](C)O)C(=O)N[C@@H](C)C(=O)N[C@@H]([C@@H](C)O)C(=O)N1)[C@@H](C)O)C(=O)N[C@@H](C)C(=O)N[C@@H](CC(=O)O)C(=O)N[C@@H](Cc1ccccc1)C(=O)N[C@@H](CC(C)C)C(=O)N[C@@H](CCCNC(=N)N)C(=O)N[C@@H](Cc1c[nH]cn1)C(=O)N[C@@H](CO)C(=O)N[C@@H](CO)C(=O)N[C@@H](CC(N)=O)C(=O)N1CCC[C@H]1C(=O)N[C@@H](Cc1ccccc1)C(=O)NCC(=O)N[C@@H](C)C(=O)N1CCC[C@H]1C(=O)N[C@@H](CC(C)C)C(=O)N[C@@H](CO)C(=O)N[C@@H](CO)C(=O)N[C@H](C(=O)N[C@@H](CC(N)=O)C(=O)N[C@H](C(=O)NCC(=O)N[C@@H](CO)C(=O)N[C@@H](CC(=O)O)C(=O)N[C@H](C(=O)N[C@@H](Cc1ccc(O)cc1)C(N)=O)[C@@H](C)O)C(C)C)[C@@H](C)O [Peptide 7] (H-K([γGlu-γGlu-C20 diacid])CNTATCATQRLADFLRHSSNPFGAPLSSTNVGSDTY-NH2; disulfide 2-7)	–
57	–	CC[C@H](C)[C@H](NC(=O)[C@H](C)NC(=O)CNC(=O)[C@H](Cc1ccccc1)NC(=O)[C@H](CC(N)=O)NC(=O)[C@@H]1CCCN1C(=O)[C@H](CO)NC(=O)[C@H](CO)NC(=O)[C@H](Cc1c[nH]cn1)NC(=O)[C@H](CCCNC(=N)N)NC(=O)[C@H](CC(C)C)NC(=O)[C@H](Cc1ccccc1)NC(=O)[C@H](CC(N)=O)NC(=O)[C@H](C)NC(=O)[C@H](CC(C)C)NC(=O)[C@H](CCCNC(=N)N)NC(=O)[C@H](CCC(N)=O)NC(=O)[C@@H](NC(=O)[C@H](C)NC(=O)[C@@H]1CSSC[C@H](NC(=O)[C@H](CCCCN)NC(=O)COCCOCCNC(=O)CC[C@H](NC(=O)CCCCCCCCCCCCCCCCCCC(=O)O)C(=O)O)C(=O)N[C@@H](CC(N)=O)C(=O)N[C@@H]([C@@H](C)O)C(=O)N[C@@H](C)C(=O)N[C@@H]([C@@H](C)O)C(=O)N1)[C@@H](C)O)C(=O)N1CCC[C@H]1C(=O)N[C@@H](CO)C(=O)N[C@@H](CO)C(=O)N[C@H](C(=O)N[C@@H](CC(N)=O)C(=O)N[C@H](C(=O)NCC(=O)N[C@@H](CO)C(=O)N[C@@H](Cc1c[nH]cn1)C(=O)N[C@H](C(=O)N[C@@H](Cc1ccc(O)cc1)C(N)=O)[C@@H](C)O)C(C)C)[C@@H](C)O [Peptide 18] ({C20 diacid-γGlu-AEEA}-KCNTATCATQRLANFLRHSSPNFGAIPSSTNVGSHTY-NH2; disulfide 2-7; N-terminus assumed)	–
111	–	CC[C@H](C)[C@H](NC(=O)[C@H](C)NC(=O)CNC(=O)[C@H](Cc1ccccc1)NC(=O)[C@H](CC(N)=O)NC(=O)[C@@H]1CCCN1C(=O)[C@H](CO)NC(=O)[C@H](CO)NC(=O)[C@H](Cc1c[nH]cn1)NC(=O)[C@H](CCCNC(=N)N)NC(=O)[C@H](CC(C)C)NC(=O)[C@H](Cc1ccccc1)NC(=O)[C@H](CCC(=O)O)NC(=O)[C@H](C)NC(=O)[C@H](CC(C)C)NC(=O)[C@H](CCCNC(=N)N)NC(=O)[C@H](CCC(N)=O)NC(=O)[C@@H](NC(=O)[C@H](C)NC(=O)[C@@H]1CSSC[C@H](NC(=O)[C@@H](N)CCCCNC(=O)CC[C@H](NC(=O)CCCCCCCCCCCCCCCCCCC(=O)O)C(=O)O)C(=O)N[C@@H](CC(N)=O)C(=O)N[C@@H]([C@@H](C)O)C(=O)N[C@@H](C)C(=O)N[C@@H]([C@@H](C)O)C(=O)N1)[C@@H](C)O)C(=O)N1CCC[C@H]1C(=O)N[C@@H](CO)C(=O)N[C@@H](CO)C(=O)N[C@H](C(=O)N[C@@H](CC(N)=O)C(=O)N[C@H](C(=O)NCC(=O)N[C@@H](CO)C(=O)N[C@@H](CCCNC(=N)N)C(=O)N[C@H](C(=O)N[C@@H](Cc1ccc(O)cc1)C(N)=O)[C@@H](C)O)C(C)C)[C@@H](C)O [Peptide 20] (H-K([γGlu-C20 diacid])CNTATCATQRLAEFLRHSSPNFGAIPSSTNVGSRTY-NH2; disulfide 2-7)	–

Structure (SMILES)	ratio rCTR/rAMY3R (rAMY3R)	rAMY3R pIC50 (rAMY3R; SPA binding assay, Tables S13 and S15)	ratio rCTR/rAMY3R (rat AMY3R)
CC[C@H](C)[C@H](NC(=O)[C@H](C)NC(=O)CNC(=O)[C@H](Cc1ccccc1)NC(=O)[C@H](CC(N)=O)NC(=O)[C@@H]1CCCN1C(=O)[C@H](CO)NC(=O)[C@H](CO)NC(=O)[C@H](Cc1c[nH]cn1)NC(=O)[C@H](CCCNC(=N)N)NC(=O)[C@H](CC(C)C)NC(=O)[C@H](Cc1ccccc1)NC(=O)[C@H](CC(=O)O)NC(=O)[C@H](C)NC(=O)[C@H](CC(C)C)NC(=O)[C@H](CCCNC(=N)N)NC(=O)[C@H](CCC(N)=O)NC(=O)[C@@H](NC(=O)[C@H](C)NC(=O)[C@@H]1CSSC[C@H](NC(=O)[C@@H](N)CCCCNC(=O)CC[C@H](NC(=O)CC[C@H](NC(=O)CCCCCCCCCCCCCCCCCCC(=O)O)C(=O)O)C(=O)O)C(=O)N[C@@H](CC(N)=O)C(=O)N[C@@H]([C@@H](C)O)C(=O)N[C@@H](C)C(=O)N[C@@H]([C@@H](C)O)C(=O)N1)[C@@H](C)O)C(=O)N1CCC[C@H]1C(=O)N[C@@H](CO)C(=O)N[C@@H](CO)C(=O)N[C@H](C(=O)N[C@@H](CC(N)=O)C(=O)N[C@H](C(=O)NCC(=O)N[C@@H](CO)C(=O)N[C@@H](CCCNC(=N)N)C(=O)N[C@H](C(=O)N[C@@H](Cc1ccc(O)cc1)C(N)=O)[C@@H](C)O)C(C)C)[C@@H](C)O [NN1213]	465	–	391
